Measured values as given in patent publication US20080139558A1, “QUINOLONES USEFUL AS INDUCIBLE NITRIC OXIDE SYNTHASE INHIBITORS” (KALYPSYS, INC., priority 2006, published 2008).

What follows are compounds tested against T1, human iNOS (Homo sapiens, UniProt P35228) (assay: DAN assay of nitric oxide production (hiNOS)). Conditions: enzyme expressed in HEK293 cells transiently transfected with human iNOS.
T1 construct: expressed in transfected cells; host or cells: HEK293
Assay type: cell-based
In short: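 Human iNOS transiently expressed in HEK293 cells; NO production quantified as nitrite via 2,3-diaminonaphthalene reaction forming fluorescent naphthotriazole.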

T1 sequence (P35228 whole entry): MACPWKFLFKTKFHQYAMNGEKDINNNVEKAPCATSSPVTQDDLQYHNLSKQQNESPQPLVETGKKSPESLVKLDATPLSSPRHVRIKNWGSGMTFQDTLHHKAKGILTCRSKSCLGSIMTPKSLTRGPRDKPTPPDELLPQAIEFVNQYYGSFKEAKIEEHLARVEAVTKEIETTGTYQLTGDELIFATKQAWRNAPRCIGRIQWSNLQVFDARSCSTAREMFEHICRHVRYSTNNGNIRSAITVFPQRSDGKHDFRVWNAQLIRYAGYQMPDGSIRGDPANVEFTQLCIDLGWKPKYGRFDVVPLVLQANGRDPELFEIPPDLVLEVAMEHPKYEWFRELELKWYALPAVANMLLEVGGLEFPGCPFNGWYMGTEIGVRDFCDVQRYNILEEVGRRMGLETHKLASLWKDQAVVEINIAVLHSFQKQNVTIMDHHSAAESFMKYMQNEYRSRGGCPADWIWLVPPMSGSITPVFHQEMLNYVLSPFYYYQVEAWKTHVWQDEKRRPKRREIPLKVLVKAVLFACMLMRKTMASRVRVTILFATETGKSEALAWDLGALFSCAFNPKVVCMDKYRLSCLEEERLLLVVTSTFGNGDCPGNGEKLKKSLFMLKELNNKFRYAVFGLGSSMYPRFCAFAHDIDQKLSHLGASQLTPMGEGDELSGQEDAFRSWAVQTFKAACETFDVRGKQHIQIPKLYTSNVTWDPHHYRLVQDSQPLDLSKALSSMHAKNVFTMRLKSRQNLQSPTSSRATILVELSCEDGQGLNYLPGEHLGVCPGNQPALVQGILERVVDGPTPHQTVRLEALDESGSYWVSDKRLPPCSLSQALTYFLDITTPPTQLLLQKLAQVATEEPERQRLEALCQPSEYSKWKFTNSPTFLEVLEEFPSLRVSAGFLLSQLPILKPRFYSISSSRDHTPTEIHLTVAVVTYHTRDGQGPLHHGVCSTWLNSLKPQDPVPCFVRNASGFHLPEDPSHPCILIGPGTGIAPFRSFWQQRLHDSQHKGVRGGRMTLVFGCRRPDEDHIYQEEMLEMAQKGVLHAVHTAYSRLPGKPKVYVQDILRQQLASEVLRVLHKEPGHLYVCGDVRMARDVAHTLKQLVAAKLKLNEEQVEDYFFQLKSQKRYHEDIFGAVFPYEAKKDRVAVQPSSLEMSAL

Row | EC50 | Structure (SMILES)
1 | ≤ 5 µM | Cc1ncsc1C(=O)N(Cc1cc(=O)[nH]c2cc(F)c(F)cc12)c1cccc(Cl)c1 [Example 109, N-(3-Chlorophenyl)-N-((6,7-difluoro-2-oxo-1,2-dihydroquinolin-4-yl)methyl)-4-methylthiazole-5-carboxamide]
2 | ≤ 5 µM | Cc1nnsc1C(=O)N(Cc1cc(=O)[nH]c2c(F)c(F)ccc12)c1cccc(Cl)c1 [Example 110, N-(3-Chlorophenyl)-N-((7,8-difluoro-2-oxo-1,2-dihydroquinolin-4-yl)methyl)-4-methyl-1,2,3-thiadiazole-5-carboxamide]
3 | ≤ 5 µM | Cc1ncsc1C(=O)N(Cc1cc(=O)[nH]c2cccc(F)c12)c1cccc(Cl)c1 [Example 111, N-(3-Chlorophenyl)-N-((5-fluoro-2-oxo-1,2-dihydroquinolin-4-yl)methyl)-4-methylthiazole-5-carboxamide]
4 | > 5 µM | Cn1nccc1C(=O)N(Cc1cc(=O)[nH]c2c(F)c(F)ccc12)c1cccc(Cl)c1 [Example 112, N-(3-Chlorophenyl)-N-((7,8-difluoro-2-oxo-1,2-dihydroquinolin-4-yl)methyl)-1-methyl-1H-pyrazole-5-carboxamide]
5 | ≤ 5 µM | Cc1ccncc1C(=O)N(Cc1c(F)c(=O)[nH]c2c(F)cccc12)c1cccc(Cl)c1 [Example 114, N-(3-Chlorophenyl)-N-((3,8-difluoro-2-oxo-1,2-dihydroquinolin-4-yl)methyl)-4-methylnicotinamide]
6 | ≤ 5 µM | Cc1ncsc1C(=O)N(Cc1c(F)c(=O)[nH]c2c(F)c(F)ccc12)c1cccc(Cl)c1 [Example 115, N-(3-Chlorophenyl)-4-methyl-N-((3,7,8-trifluoro-2-oxo-1,2-dihydroquinolin-4-yl)methyl)thiazole-5-carboxamide]
7 | ≤ 5 µM | Cc1ccncc1C(=O)N(Cc1c(F)c(=O)[nH]c2c(F)c(F)ccc12)c1cccc(Cl)c1 [Example 116, N-(3-Chlorophenyl)-4-methyl-N-((3,7,8-trifluoro-2-oxo-1,2-dihydroquinolin-4-yl)methyl)nicotinamide]
8 | > 5 µM | Cc1ncsc1C(=O)N(Cc1cc(=O)n(C)c2c(F)cccc12)c1cccc(Cl)c1 [Example 117, N-(3-Chlorophenyl)-N-((8-fluoro-1-methyl-2-oxo-1,2-dihydroquinolin-4-yl)methyl)-4-methylthiazole-5-carboxamide]
9 | > 5 µM | O=c1cc(Cn2c(-c3cccnc3)nc3ccccc32)c2cccc(F)c2[nH]1 [Example 118, 8-Fluoro-4-((2-(pyridin-3-yl)-1H-benzo[d]imidazol-1-yl)methyl)quinolin-2(1H)-one]
10 | ≤ 5 µM | Cc1ncsc1-c1nc2ccccc2n1Cc1cc(=O)[nH]c2c(F)c(F)ccc12 [Example 119, 7,8-Difluoro-4-((2-(4-methylthiazol-5-yl)-1H-benzo[d]imidazol-1-yl)methyl)quinolin-2(1H)-one]
11 | > 5 µM | O=c1cc(Cn2c(-c3cccnc3)nc3ccccc32)c2ccc(F)c(F)c2[nH]1 [Example 120, 7,8-Difluoro-4-((2-(pyridin-3-yl)-1H-benzo[d]imidazol-1-yl)methyl)quinolin-2(1H)-one]
12 | > 5 µM | Cc1ccncc1-c1nc2ccccc2n1Cc1cc(=O)[nH]c2c(F)c(F)ccc12 [Example 121, 7,8-Difluoro-4-((2-(4-methylpyridin-3-yl)-1H-benzo[d]imidazol-1-yl)methyl)quinolin-2(1H)-one]
13 | ≤ 5 µM | Cn1cncc1-c1nc2ccccc2n1Cc1cc(=O)[nH]c2c(F)c(F)ccc12 [Example 122, 7,8-Difluoro-4-((2-(1-methyl-1H-imidazol-5-yl)-1H-benzo[d]imidazol-1-yl)methyl)quinolin-2(1H)-one]
14 | ≤ 5 µM | Cc1ncsc1-c1nc2ccccc2n1Cc1cc(=O)[nH]c2ccccc12 [Example 124, 4-((2-(4-Methylthiazol-5-yl)-1H-benzo[d]imidazol-1-yl)methyl)quinolin-2(1H)-one]
15 | > 5 µM | O=c1cc(Cn2c(-c3cccnc3)nc3ccccc32)c2ccccc2[nH]1 [Example 125, 4-((2-(Pyridin-3-yl)-1H-benzo[d]imidazol-1-yl)methyl)quinolin-2(1H)-one]
16 | ≤ 5 µM | O=C(c1nnc[nH]1)N(Cc1cc(=O)[nH]c2c(F)c(F)ccc12)c1cccc(Cl)c1 [Example 168, N-(3-Chlorophenyl)-N-[(7,8-difluoro-2-oxo-1,2-dihydroquinolin-4-yl)methyl]-4H-1,2,4-triazole-3-carboxamide]
17 | ≤ 5 µM | Cn1nnc(C(=O)N(Cc2cc(=O)[nH]c3c(F)c(F)ccc23)c2cccc(Cl)c2)n1 [Example 169]

The next lines start with the compound.

Row | Structure (SMILES) | EC50
18 | Cc1ncsc1C(=O)N(Cc1cc(=O)[nH]c2c(F)c(F)ccc12)c1cc(Cl)ccc1F [Example 88, N-(3-Chloro-6-fluorophenyl)-N-((7,8-fluoro-2-oxo-1,2-dihydroquinolin-4-yl)methyl)-4-methylthiazole-5-carboxamide] | ≤ 5 µM
19 | Cc1ncsc1C(=O)N(Cc1cc(=O)[nH]c2c(F)c(F)ccc12)c1cc(F)cc(Cl)c1 [Example 89] | ≤ 5 µM
20 | Cc1ncsc1C(=O)N(Cc1cc(=O)[nH]c2c(F)c(F)ccc12)c1ccccc1F [Example 90, N-(2-Fluorophenyl)-N-((7,8-fluoro-2-oxo-1,2-dihydroquinolin-4-yl)methyl)-4-methylthiazole-5-carboxamide] | ≤ 5 µM
21 | Cc1ncsc1C(=O)N(Cc1cc(=O)[nH]c2c(F)cccc12)c1ccc(F)c(F)c1 [Example 92, N-(3,4-Difluorophenyl)-N-((8-fluoro-2-oxo-1,2-dihydroquinolin-4-yl)methyl)-4-methylthiazole-5-carboxamide] | ≤ 5 µM
22 | Cc1cccc(N(Cc2cc(=O)[nH]c3c(F)cccc23)C(=O)c2scnc2C)c1 [Example 93, N-(3-Methylphenyl)-N-((8-fluoro-2-oxo-1,2-dihydroquinolin-4-yl)methyl)-4-methylthiazole-5-carboxamide] | ≤ 5 µM
23 | Cc1cccc(N(Cc2cc(=O)[nH]c3c(F)c(F)ccc23)C(=O)c2scnc2C)c1 [Example 94, N-(3-Methylphenyl)-N-((7,8-fluoro-2-oxo-1,2-dihydroquinolin-4-yl)methyl)-4-methylthiazole-5-carboxamide] | ≤ 5 µM
24 | Cc1ncsc1C(=O)N(Cc1cc(=O)[nH]c2c(F)cccc12)c1cccc(C#N)c1 [Example 95, N-(3-Cyanophenyl)-N-((8-fluoro-2-oxo-1,2-dihydroquinolin-4-yl)methyl)-4-methylthiazole-5-carboxamide] | ≤ 5 µM
25 | Cc1ncsc1C(=O)N(Cc1cc(=O)[nH]c2c(F)c(F)ccc12)c1cccc(Cl)c1F [Example 96, N-(3-Chloro-2-fluorophenyl)-N-((7,8-fluoro-2-oxo-1,2-dihydroquinolin-4-yl)methyl)-4-methylthiazole-5-carboxamide] | ≤ 5 µM
26 | Cc1ncsc1C(=O)N(Cc1cc(=O)[nH]c2c(F)cccc12)c1ccccc1 [Example 97, N-Phenyl-N-((8-fluoro-2-oxo-1,2-dihydroquinolin-4-yl)methyl)-4-methylthiazole-5-carboxamide] | ≤ 5 µM
27 | Cc1nc(N(C)C)sc1C(=O)N(Cc1cc(=O)[nH]c2c(F)cccc12)c1ccc(F)c(Cl)c1 [Example 98, N-(3-Chloro-4-fluorophenyl)-2-(dimethylamino)-N-((8-fluoro-2-oxo-1,2-dihydroquinolin-4-yl)methyl)-4-methylthiazole-5-carboxamide] | ≤ 5 µM
28 | Cc1nc(Br)sc1C(=O)N(Cc1cc(=O)[nH]c2ccccc12)c1ccccc1 [Example 99, 2-Bromo-4-methyl-N-((2-oxo-1,2-dihydroquinolin-4-yl)methyl)-N-phenylthiazole-5-carboxamide] | ≤ 5 µM
29 | Cc1nc(N(C)C)sc1C(=O)N(Cc1cc(=O)[nH]c2ccccc12)c1ccccc1 [Example 100, 2-(Dimethylamino)-4-methyl-N-((2-oxo-1,2-dihydroquinolin-4-yl)methyl)-N-phenylthiazole-5-carboxamide] | ≤ 5 µM
30 | Cc1nc(N2CCOCC2)sc1C(=O)N(Cc1cc(=O)[nH]c2ccccc12)c1ccccc1 [Example 101, 4-Methyl-2-morpholino-N-((2-oxo-1,2-dihydroquinolin-4-yl)methyl)-N-phenylthiazole-5-carboxamide] | ≤ 5 µM
31 | Cc1nc(N2CCN(C)CC2)sc1C(=O)N(Cc1cc(=O)[nH]c2ccccc12)c1ccccc1 [Example 102, 4-Methyl-2-(4-methylpiperazin-1-yl)-N-((2-oxo-1,2-dihydroquinolin-4-yl)methyl)-N-phenylthiazole-5-carboxamide] | > 5 µM
32 | Cc1ccc2[nH]c(=O)c(CN(Cc3ccccc3)c3ccc(C#N)cn3)cc2c1 [Example 103, 6-(Benzyl((6-methyl-2-oxo-1,2-dihydroquinolin-3-yl)methyl)amino)nicotinonitrile] | > 5 µM
33 | Cc1ncsc1CN(C(=O)c1cc(=O)[nH]c2c(F)cccc12)c1ccc(F)c(Cl)c1 [Example 104, N-(3-Chloro-4-fluorophenyl)-8-fluoro-N-((4-methylthiazol-5-yl)methyl)-2-oxo-1,2-dihydroquinoline-4-carboxamide] | > 5 µM
34 | O=C(c1cc(=O)[nH]c2c(F)cccc12)N(Cc1cscn1)c1cccc(Cl)c1 [Example 105, N-(3-Chlorophenyl)-8-fluoro-2-oxo-N-(thiazol-4-ylmethyl)-1,2-dihydroquinoline-4-carboxamide] | > 5 µM
35 | O=c1cc(CN2CCN(c3ccccc3F)CC2)c2ccccc2[nH]1 [Example 106, 4-((4-(2-Fluorophenyl)piperazin-1-yl)methyl)quinolin-2(1H)-one] | > 5 µM
36 | Cc1ncsc1C(=O)N(Cc1cc(=O)[nH]c2c(Br)ccc(F)c12)c1cccc(Cl)c1 [Example 107, N-((8-Bromo-5-fluoro-2-oxo-1,2-dihydroquinolin-4-yl)methyl)-N-(3-chlorophenyl)-4-methylthiazole-5-carboxamide] | > 5 µM
37 | Cc1ncsc1C(=O)N(Cc1c(F)c(=O)[nH]c2c(F)cccc12)c1cccc(Cl)c1 [Example 108, N-(3-Chlorophenyl)-N-((3,8-difluoro-2-oxo-1,2-dihydroquinolin-4-yl)methyl)-4-methylthiazole-5-carboxamide] | ≤ 5 µM
